Values quoted from earlier work in US7655753B2, “Conjugate” (PhotoBiotics Limited, priority 2001, dated 2010).
Each block holds one molecule with its values, some of them ahead of it.

Experiments:
[1] = system: Basal cell cancer of skin; details: clinical PDT, topical administration
[2] = system: Barrett's oesophagus cancer; details: clinical PDT, systemic administration
Oral cancer = details: clinical PDT, over 5-53 months
[3] = system: Chest wall recurrence in breast cancer; details: clinical PDT
Bladder cancer = details: clinical PDT
Barrett's mucosal cancer = details: clinical PDT

Molecule: NCC(=O)CCC(=O)O [ALA, 5-aminolaevulanic acid]
- complete response [1]: 90% complete response
- High-grade dysplasia outcome [2]: eradicated in all patients

- skin photosensitivity (duration) (in vivo): about 2 weeks
Molecule: Oc1cccc(-c2c3nc(c(-c4cccc(O)c4)c4ccc([nH]4)c(-c4cccc(O)c4)c4nc(c(-c5cccc(O)c5)c5ccc2[nH]5)CC4)C=C3)c1 [Foscan, meta-tetrahydroxyphenyl chlorin]

Molecule: Dihematoporphyrin ether
- complete response (Oral cancer): 87% complete response
- complete response [3]: 20% complete response,
- partial response [3]: 45% partial response

Molecule: Hematoporphyrin derivative
- alive after 5 years (Bladder cancer): 30% alive after 5 years
- complete response (Bladder cancer): 74% complete response,

- persistence in the body (leading to skin photosensitivity): weeks
Molecule: porfimer sodium
- conversion to normal epithelium (Barrett's mucosal cancer): 75% conversion to
- tumour outcome (Barrett's mucosal cancer): tumours eliminated
